Measured values reported in publication PMC3935609 (Biochemistry, 2013).

Tests used:
[1] = biological target: T1, GLIC (Gloeobacter violaceus ligand-gated ion channel) (Gloeobacter violaceus, UniProt Q7NDN8); assay: [3H]AziPm photoaffinity labeling of purified GLIC at pH […] with Edman sequencing; format: cell-based
T1 sequence (Q7NDN8 44-359): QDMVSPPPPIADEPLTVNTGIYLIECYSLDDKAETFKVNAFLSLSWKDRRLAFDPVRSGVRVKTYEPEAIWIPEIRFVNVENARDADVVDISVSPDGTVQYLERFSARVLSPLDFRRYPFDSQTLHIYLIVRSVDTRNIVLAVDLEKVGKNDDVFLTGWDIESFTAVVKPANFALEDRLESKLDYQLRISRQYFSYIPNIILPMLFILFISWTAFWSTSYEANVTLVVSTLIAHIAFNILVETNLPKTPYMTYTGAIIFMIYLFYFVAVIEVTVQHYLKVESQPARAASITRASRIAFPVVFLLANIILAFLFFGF

[2] = biological target: T1, GLIC (Gloeobacter violaceus ligand-gated ion channel); assay: competition; format: cell-based

SMILES | IC50 [1] [µM] | IC50 [2] [µM]
CC(C)c1ccc(C2(C(F)(F)F)N=N2)cc1O [AziPm, 2-isopropyl-5-[3-(trifluoromethyl)-3H-diazirin-3-yl]phenol] | 51.4 ± 5.3 | 
CC(C)c1cccc(C(C)C)c1O [PPF, Propofol] |  | 21.4 ± 1.2
